# Data reported in patent publication US20100267561A1, “HERBICIDAL PYRIDAZINONE DERIVATIVES” (priority 2007, published 2010).
# Columns and labels:
# Type in all cases: in vivo
# [1] = system: annual bluegrass (Poa annua); test: Test C pre-/postemergence plant response; settings: Preemergence
# From the text: (§1) Seeds of plant species selected from annual bluegrass (Poa annua), blackgrass (Alopecurus myosuroides), canola (Brassica rapa), downy bromegrass (Bromus tectorum), green foxtail (Setaria viridis), Italian ryegrass (Lolium multiflorum), canarygrass (Phalaris minor), pigweed (Amaranthus retroflexus), spring barley (Hordeum vulgare), spring wheat (Triticum aestivum), wild mustard (Sinapis arvensis), wild oat (Avena fatua), windgrass (Apera spica-venti), winter barley (Hordeum vulgare), and winter wheat (Triticum aestivum) were planted and treated preemergence with test chemicals formulated in a non-phytotoxic solvent mixture which included a surfactant. At the same time, plants selected from these crop and weed species were treated with postemergence applications of some of the test chemicals formulated in the same manner. Plants ranged in height from 2 to 18 cm (1- to 4-leaf stage) for postemergence treatments.
# (§2) Treated plants and controls were maintained in a controlled growth environment for 15 to 25 days after which time all species were compared to controls and visually evaluated. Plant response ratings, summarized in Table C, are based on a scale of 0 to 100 where 0 is no effect and 100 is complete control. A dash (-) response means no test result.
# [2] = system: spring barley (Hordeum vulgare); test: Test C pre-/postemergence plant response; settings: Preemergence
# From the text: as §1, §2
# [3] = system: Italian ryegrass (Lolium multiflorum); test: Test C pre-/postemergence plant response; settings: Preemergence
# From the text: as §1, §2
# [4] = system: downy bromegrass (Bromus tectorum); test: Test C pre-/postemergence plant response; settings: Preemergence
# From the text: as §1, §2
# [5] = system: spring wheat (Triticum aestivum); test: Test C pre-/postemergence plant response; settings: Preemergence
# From the text: as §1, §2
# [6] = system: winter barley (Hordeum vulgare); test: Test C pre-/postemergence plant response; settings: Preemergence
# From the text: as §1, §2
# [7] = system: canarygrass (Phalaris minor); test: Test C pre-/postemergence plant response; settings: Preemergence
# From the text: as §1, §2
# [8] = system: pigweed (Amaranthus retroflexus); test: Test C pre-/postemergence plant response; settings: Preemergence
# From the text: as §1, §2
# [9] = system: green foxtail (Setaria viridis); test: Test C pre-/postemergence plant response; settings: Preemergence
# From the text: as §1, §2
# wild oat (Avena fatua) = test: Test C pre-/postemergence plant response; settings: Preemergence
# From the text: as §1, §2
# [10] = system: winter wheat (Triticum aestivum); test: Test C pre-/postemergence plant response; settings: Preemergence
# From the text: as §1, §2
# [11] = system: blackgrass (Alopecurus myosuroides); test: Test C pre-/postemergence plant response; settings: Preemergence
# From the text: as §1, §2
# [12] = system: windgrass (Apera spica-venti); test: Test C pre-/postemergence plant response; settings: Preemergence
# From the text: as §1, §2
# [13] = system: winter barley (Hordeum vulgare); test: Test B postemergence plant response; settings: for Barley plant response rating: 8 g ai/ha, postemergence, 0-100 scale; for Plant response rating, Barley: Postemergence, scale 0 to 100, 0 no effect, 100 complete control
# How it was run: (§3)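 Postemergence greenhouse test; plants at 2 to 18 cm (1- to 4-leaf stage) given formulated test chemical, held 13 to 15 days, then visually rated against untreated controls on a 0 (no effect) to 100 (complete control) scale; dash means no result.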
# [14] = system: canarygrass (Phalaris minor); test: Test B postemergence plant response; settings: for Canarygrass plant response rating: 8 g ai/ha, postemergence, 0-100 scale; for Plant response rating, Canarygrass: Postemergence
# How it was run: as §3
# [15] = system: windgrass (Apera spica-venti); test: Test B postemergence plant response; settings: for Windgrass plant response rating: postemergence, 0-100 scale; for Plant response rating, Windgrass: Postemergence
# How it was run: as §3
# [16] = 8 g ai/ha, scale 0 to 100 (0 no effect, 100 complete control)
# [17] = 16 g ai/ha, scale 0 to 100 (0 no effect, 100 complete control)
# [18] = 31 g ai/ha, scale 0 to 100 (0 no effect, 100 complete control)
# [19] = 62 g ai/ha, scale 0 to 100, 0 no effect, 100 complete control
structure (smiles),measurement,setting,value
COC(=O)Oc1cnn(C)c(=O)c1-n1nc(-c2ccc(Cl)cc2)cc1C [Compound 33],"Plant response rating, Bluegrass",[1]; [16],0
same,"Plant response rating, Bluegrass",[1]; [17],0
same,"Plant response rating, Bluegrass",[1]; [18],0
same,"Plant response rating, Bluegrass",[1]; [19],0
same,"Plant response rating, Barley, Spring",[2]; [16],0
same,"Plant response rating, Barley, Spring",[2]; [17],0
same,"Plant response rating, Barley, Spring",[2]; [18],10
same,"Plant response rating, Barley, Spring",[2]; [19],25
same,"Plant response rating, Ryegrass, Italian",[3]; [16],10
same,"Plant response rating, Ryegrass, Italian",[3]; [17],65
same,"Plant response rating, Ryegrass, Italian",[3]; [18],100
same,"Plant response rating, Ryegrass, Italian",[3]; [19],100
same,"Plant response rating, Bromegrass, Downy",[4]; [16],0
same,"Plant response rating, Bromegrass, Downy",[4]; [17],35
same,"Plant response rating, Bromegrass, Downy",[4]; [18],35
same,"Plant response rating, Bromegrass, Downy",[4]; [19],60
same,"Plant response rating, Wheat, Spring",[5]; [16],0
same,"Plant response rating, Wheat, Spring",[5]; [17],0
same,"Plant response rating, Wheat, Spring",[5]; [18],20
same,"Plant response rating, Wheat, Spring",[5]; [19],50
same,"Plant response rating, Barley, Winter",[6]; [16],0
same,"Plant response rating, Barley, Winter",[6]; [17],0
same,"Plant response rating, Barley, Winter",[6]; [18],0
same,"Plant response rating, Barley, Winter",[6]; [19],20
same,"Plant response rating, Canarygrass",[7]; [16],0
same,"Plant response rating, Canarygrass",[7]; [17],10
same,"Plant response rating, Canarygrass",[7]; [18],65
same,"Plant response rating, Canarygrass",[7]; [19],90
same,"Plant response rating, Pigweed",[8]; [17],0
same,"Plant response rating, Pigweed",[8]; [18],0
same,"Plant response rating, Pigweed",[8]; [19],0
same,"Plant response rating, Foxtail, Green",[9]; [16],15
same,"Plant response rating, Foxtail, Green",[9]; [17],95
same,"Plant response rating, Foxtail, Green",[9]; [18],100
same,"Plant response rating, Foxtail, Green",[9]; [19],100
same,"Plant response rating, Oat, Wild",wild oat (Avena fatua); [16],0
same,"Plant response rating, Oat, Wild",wild oat (Avena fatua); [17],25
same,"Plant response rating, Oat, Wild",wild oat (Avena fatua); [18],60
same,"Plant response rating, Oat, Wild",wild oat (Avena fatua); [19],75
same,"Plant response rating, Wheat, Winter",[10]; [16],0
same,"Plant response rating, Wheat, Winter",[10]; [17],0
same,"Plant response rating, Wheat, Winter",[10]; [18],15
same,"Plant response rating, Wheat, Winter",[10]; [19],40
same,"Plant response rating, Blackgrass",[11]; [16],0
same,"Plant response rating, Blackgrass",[11]; [17],50
same,"Plant response rating, Blackgrass",[11]; [18],80
same,"Plant response rating, Blackgrass",[11]; [19],100
same,"Plant response rating, Windgrass",[12]; [16],0
same,"Plant response rating, Windgrass",[12]; [17],0
same,"Plant response rating, Windgrass",[12]; [19],50
same,Barley plant response rating,[13],0
same,"Plant response rating, Barley",[13]; 16 g ai/ha,25
same,"Plant response rating, Barley",[13]; 31 g ai/ha,30
same,"Plant response rating, Barley",[13]; 62 g ai/ha,30
same,Canarygrass plant response rating,[14],0
same,"Plant response rating, Canarygrass","[14]; 16 g ai/ha, scale 0 to 100",35
same,"Plant response rating, Canarygrass","[14]; 31 g ai/ha, scale 0 to 100, 0 no effect, 100 complete control",80
same,Windgrass plant response rating,[15]; 8 g ai/ha,10
same,"Plant response rating, Windgrass","[15]; 16 g ai/ha, scale 0 to 100",50
same,"Plant response rating, Windgrass",[15]; [19],70
Cc1cc(-c2ccc(Cl)cc2)nn1-c1c(OC(=S)N(C)C)cnn(C)c1=O [Compound 69],Barley plant response rating,[13],0
same,"Plant response rating, Barley",[13]; 16 g ai/ha,0
same,"Plant response rating, Barley",[13]; 31 g ai/ha,0
same,"Plant response rating, Barley",[13]; 62 g ai/ha,0
same,Canarygrass plant response rating,[14],0
same,"Plant response rating, Canarygrass","[14]; 16 g ai/ha, scale 0 to 100",0
same,"Plant response rating, Canarygrass","[14]; 31 g ai/ha, scale 0 to 100",0
same,"Plant response rating, Canarygrass",[14]; [19],0
same,Windgrass plant response rating,[15]; 8 g ai/ha,0
same,Windgrass plant response rating,[15]; 16 g ai/ha,0
same,"Plant response rating, Windgrass","[15]; 31 g ai/ha, scale 0 to 100",10
same,"Plant response rating, Windgrass",[15]; [19],40
"Cc1nn(C)c(=O)c(-n2nc(-c3ccc(C(F)(F)F)cc3)cc2C)c1O [Compound 75, 5-hydroxy-2,6-dimethyl-4-[5-methyl-3-[4-(trifluoromethyl)phenyl]-1H-pyrazol-1-yl]-3(2H)-pyridazinone]",Barley plant response rating,[13],0
same,"Plant response rating, Barley",[13]; 16 g ai/ha,0
same,"Plant response rating, Barley",[13]; 31 g ai/ha,15
same,"Plant response rating, Barley",[13]; 62 g ai/ha,60
same,Canarygrass plant response rating,[14],0
same,"Plant response rating, Canarygrass","[14]; 16 g ai/ha, scale 0 to 100",0
same,"Plant response rating, Canarygrass","[14]; 31 g ai/ha, scale 0 to 100",0
same,"Plant response rating, Canarygrass",[14]; [19],50
same,Windgrass plant response rating,[15]; 8 g ai/ha,10
same,Windgrass plant response rating,[15]; 16 g ai/ha,50
same,"Plant response rating, Windgrass","[15]; 31 g ai/ha, scale 0 to 100",70
same,"Plant response rating, Windgrass",[15]; [19],90
"Cc1cc(-c2ccc(Br)cc2)nn1-c1c(O)cn[nH]c1=O [Compound 78, 4-[3-(4-bromophenyl)-5-methyl-1H-pyrazol-1-yl]-5-hydroxy-3(2H)-pyridazinone]",Barley plant response rating,[13],45
same,"Plant response rating, Barley",[13]; 16 g ai/ha,90
same,"Plant response rating, Barley",[13]; 31 g ai/ha,95
same,"Plant response rating, Barley",[13]; 62 g ai/ha,95
same,Canarygrass plant response rating,[14],80
same,"Plant response rating, Canarygrass","[14]; 16 g ai/ha, scale 0 to 100",90
same,"Plant response rating, Canarygrass","[14]; 31 g ai/ha, scale 0 to 100",100
same,"Plant response rating, Canarygrass",[14]; [19],100
same,Windgrass plant response rating,[15]; 8 g ai/ha,40
same,Windgrass plant response rating,[15]; 16 g ai/ha,50
same,"Plant response rating, Windgrass","[15]; 31 g ai/ha, scale 0 to 100",60
same,"Plant response rating, Windgrass",[15]; [19],80
"Cc1cc(-c2ccc(Br)cc2)nn1-c1c(OC(=O)C2CC2)cnn(C(=O)C2CC2)c1=O [Compound 80, 5-[3-(4-bromophenyl)-5-methyl-1H-pyrazol-1-yl]-1-(cyclopropylcarbonyl)-1,6-dihydro-6-oxo-4-pyridazinyl cyclopropanecarboxylate]",Barley plant response rating,[13],30
same,"Plant response rating, Barley",[13]; 16 g ai/ha,60
same,"Plant response rating, Barley",[13]; 31 g ai/ha,95
same,"Plant response rating, Barley",[13]; 62 g ai/ha,98
same,Canarygrass plant response rating,[14],90
same,"Plant response rating, Canarygrass","[14]; 16 g ai/ha, scale 0 to 100",98
same,"Plant response rating, Canarygrass","[14]; 31 g ai/ha, scale 0 to 100",100
same,"Plant response rating, Canarygrass",[14]; [19],100
same,Windgrass plant response rating,[15]; 8 g ai/ha,30
same,Windgrass plant response rating,[15]; 16 g ai/ha,40
same,"Plant response rating, Windgrass","[15]; 31 g ai/ha, scale 0 to 100",60
same,"Plant response rating, Windgrass",[15]; [19],70
Cc1nn(C)c(=O)c(-n2nc(-c3ccc(Br)cc3)cc2C)c1O [Compound 81],Barley plant response rating,[13],10
same,"Plant response rating, Barley",[13]; 16 g ai/ha,15
same,"Plant response rating, Barley",[13]; 31 g ai/ha,70
same,"Plant response rating, Barley",[13]; 62 g ai/ha,98
same,Canarygrass plant response rating,[14],65
same,"Plant response rating, Canarygrass","[14]; 31 g ai/ha, scale 0 to 100",98
same,"Plant response rating, Canarygrass",[14]; [19],100
same,Windgrass plant response rating,[15]; 8 g ai/ha,45
same,Windgrass plant response rating,[15]; 16 g ai/ha,80
same,"Plant response rating, Windgrass","[15]; 31 g ai/ha, scale 0 to 100",85
same,"Plant response rating, Windgrass",[15]; [19],95
